Activity calls are given as the source filed them.
Columns and labels:
[1] = target: T1, Mannose-6-phosphate isomerase (Homo sapiens, UniProt P34949); experiment: phosphomannose isomerase inhibition – biochemical, fluorescence intensity, confirmation (AID 1535)
T1 sequence (P34949 whole entry): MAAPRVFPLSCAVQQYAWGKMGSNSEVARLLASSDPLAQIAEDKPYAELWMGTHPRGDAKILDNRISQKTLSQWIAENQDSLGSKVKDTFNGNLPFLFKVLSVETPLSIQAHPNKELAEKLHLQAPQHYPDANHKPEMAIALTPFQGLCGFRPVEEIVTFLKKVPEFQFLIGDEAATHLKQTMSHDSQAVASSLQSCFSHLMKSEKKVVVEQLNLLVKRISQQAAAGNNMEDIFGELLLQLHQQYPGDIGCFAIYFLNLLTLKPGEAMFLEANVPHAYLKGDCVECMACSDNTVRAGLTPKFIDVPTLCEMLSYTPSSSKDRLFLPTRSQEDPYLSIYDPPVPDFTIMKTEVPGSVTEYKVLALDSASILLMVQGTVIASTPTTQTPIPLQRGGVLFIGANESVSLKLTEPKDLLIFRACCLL

Phosphomannomutase 2 = Phosphomannomutase 2 (Homo sapiens, UniProt O15305); experiment: Counter screen SAR assay for PMM2 inhibitors via a fluorescence intensity assay. [Related pubchem assays (depositor defined):AID1545, AID1574]
Sequence of Phosphomannomutase 2 (O15305 whole entry): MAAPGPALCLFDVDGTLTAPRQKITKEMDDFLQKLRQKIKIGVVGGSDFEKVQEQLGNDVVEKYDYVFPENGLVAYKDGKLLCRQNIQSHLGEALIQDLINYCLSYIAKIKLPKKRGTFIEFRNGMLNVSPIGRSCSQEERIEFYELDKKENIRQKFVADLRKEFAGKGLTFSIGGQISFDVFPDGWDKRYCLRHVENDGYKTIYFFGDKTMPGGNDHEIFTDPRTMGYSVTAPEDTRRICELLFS

[2] = MIN6 cell viability loss – mouse insulinoma, cytotoxicity control, dose response (AID 2122); format: functional;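 further: confirmatory high-throughput counterscreen run to flag cytotoxic compounds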
[3] = decrease of insulin promoter-GFP reporter – imaging, high-content screening, mouse beta cells (AID 1628); format: functional; details: MIN6
[4] = HEK-293T viability loss after treatment – luminescence, T-cell screen hits, cytotoxicity control for TCR NF-kB inhibitor project, dose response (AID 489026); format: functional, cell-based;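 further: cells exposed to compound about 14 hours before the viability readout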
[5] = target: T2, Alkaline phosphatase, tissue-nonspecific isozyme (Homo sapiens, UniProt P05186); experiment: activation of tissue-nonspecific alkaline phosphatase – biochemical, TNAP isozyme, mouse IAP uHTS hits, selectivity assay for mouse IAP activator project, dose response (AID 488880); format: functional
T2 sequence (P05186 whole entry): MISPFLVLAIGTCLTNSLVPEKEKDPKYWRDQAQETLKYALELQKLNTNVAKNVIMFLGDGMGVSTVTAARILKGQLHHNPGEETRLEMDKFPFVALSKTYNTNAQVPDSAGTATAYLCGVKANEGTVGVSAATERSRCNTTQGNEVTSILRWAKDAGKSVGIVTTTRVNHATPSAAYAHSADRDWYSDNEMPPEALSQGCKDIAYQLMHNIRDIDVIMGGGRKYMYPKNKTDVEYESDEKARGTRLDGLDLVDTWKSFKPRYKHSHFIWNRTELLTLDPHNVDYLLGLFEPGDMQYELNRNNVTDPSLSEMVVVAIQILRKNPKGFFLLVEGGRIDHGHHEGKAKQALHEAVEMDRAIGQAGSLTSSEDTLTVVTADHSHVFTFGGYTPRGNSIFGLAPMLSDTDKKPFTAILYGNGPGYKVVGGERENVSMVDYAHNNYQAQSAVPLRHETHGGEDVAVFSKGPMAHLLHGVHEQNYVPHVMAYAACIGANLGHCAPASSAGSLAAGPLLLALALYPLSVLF

[6] = target: Intestinal-type alkaline phosphatase (Mus musculus, UniProt P24822); experiment: mouse intestinal alkaline phosphatase activators, dose response, biochemical, luminescence, uHTS hits (AID 488783); format: functional
Sequence of Intestinal-type alkaline phosphatase (Mus musculus, UniProt P24822) (P24822 whole entry, the tested form may be a part): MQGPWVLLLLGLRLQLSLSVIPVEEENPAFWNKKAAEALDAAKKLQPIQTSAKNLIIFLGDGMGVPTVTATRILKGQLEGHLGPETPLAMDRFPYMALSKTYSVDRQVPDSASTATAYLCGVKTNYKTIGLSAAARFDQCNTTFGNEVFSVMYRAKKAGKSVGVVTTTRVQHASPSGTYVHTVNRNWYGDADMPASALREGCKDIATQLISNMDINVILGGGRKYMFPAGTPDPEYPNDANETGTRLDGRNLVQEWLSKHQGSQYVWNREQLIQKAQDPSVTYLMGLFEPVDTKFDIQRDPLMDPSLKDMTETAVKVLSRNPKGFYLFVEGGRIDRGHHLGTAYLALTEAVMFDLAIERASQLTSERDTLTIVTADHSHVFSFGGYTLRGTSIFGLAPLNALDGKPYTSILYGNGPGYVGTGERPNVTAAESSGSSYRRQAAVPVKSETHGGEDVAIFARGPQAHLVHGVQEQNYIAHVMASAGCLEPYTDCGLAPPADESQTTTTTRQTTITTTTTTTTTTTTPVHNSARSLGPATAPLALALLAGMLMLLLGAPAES

[7] = target: T3, RNA-binding protein pos-1 (Caenorhabditis elegans, UniProt G5EF15); experiment: disruptors of C. elegans POS-1 RNA interaction – biochemical, fluorescence polarization, dose response (AID 1964);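 further: purified POS-1 fused to maltose binding protein made in E. coli; potency of compounds blocking POS-1 binding to fluorescent RNA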
T3 sequence (G5EF15 whole entry): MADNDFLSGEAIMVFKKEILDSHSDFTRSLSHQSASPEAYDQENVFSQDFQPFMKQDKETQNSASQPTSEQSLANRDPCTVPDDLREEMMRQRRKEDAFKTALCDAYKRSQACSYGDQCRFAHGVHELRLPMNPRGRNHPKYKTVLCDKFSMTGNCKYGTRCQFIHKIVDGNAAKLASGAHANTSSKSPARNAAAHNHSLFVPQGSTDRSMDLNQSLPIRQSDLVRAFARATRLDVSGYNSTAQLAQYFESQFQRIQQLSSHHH

[8] = target: Intestinal-type alkaline phosphatase (Homo sapiens, UniProt P09923); experiment: activation of human intestinal alkaline phosphatase – biochemical, dose response (AID 488873); format: functional
Sequence of Intestinal-type alkaline phosphatase (Homo sapiens, UniProt P09923) (P09923 whole entry): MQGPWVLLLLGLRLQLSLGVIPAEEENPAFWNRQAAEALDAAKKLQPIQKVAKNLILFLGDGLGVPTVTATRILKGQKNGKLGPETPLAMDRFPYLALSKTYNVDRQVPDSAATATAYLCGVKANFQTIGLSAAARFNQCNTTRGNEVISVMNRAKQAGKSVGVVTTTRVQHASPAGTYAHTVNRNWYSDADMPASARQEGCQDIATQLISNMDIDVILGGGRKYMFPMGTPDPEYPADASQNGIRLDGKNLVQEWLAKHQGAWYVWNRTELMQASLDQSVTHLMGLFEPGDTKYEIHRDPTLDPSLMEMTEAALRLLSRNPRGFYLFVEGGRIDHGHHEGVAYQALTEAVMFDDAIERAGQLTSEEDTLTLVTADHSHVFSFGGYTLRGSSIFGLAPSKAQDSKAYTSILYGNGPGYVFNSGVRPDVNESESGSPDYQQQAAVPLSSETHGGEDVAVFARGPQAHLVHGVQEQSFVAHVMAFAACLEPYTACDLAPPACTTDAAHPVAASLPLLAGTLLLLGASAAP

[9] = target: T4, Zinc finger protein mex-5 (Caenorhabditis elegans, UniProt Q9XUB2); experiment: potency of MEX-5 RNA-binding blockers – biochemical, C. elegans, fluorescence polarization, dose response (AID 1960)
T4 sequence (Q9XUB2 whole entry): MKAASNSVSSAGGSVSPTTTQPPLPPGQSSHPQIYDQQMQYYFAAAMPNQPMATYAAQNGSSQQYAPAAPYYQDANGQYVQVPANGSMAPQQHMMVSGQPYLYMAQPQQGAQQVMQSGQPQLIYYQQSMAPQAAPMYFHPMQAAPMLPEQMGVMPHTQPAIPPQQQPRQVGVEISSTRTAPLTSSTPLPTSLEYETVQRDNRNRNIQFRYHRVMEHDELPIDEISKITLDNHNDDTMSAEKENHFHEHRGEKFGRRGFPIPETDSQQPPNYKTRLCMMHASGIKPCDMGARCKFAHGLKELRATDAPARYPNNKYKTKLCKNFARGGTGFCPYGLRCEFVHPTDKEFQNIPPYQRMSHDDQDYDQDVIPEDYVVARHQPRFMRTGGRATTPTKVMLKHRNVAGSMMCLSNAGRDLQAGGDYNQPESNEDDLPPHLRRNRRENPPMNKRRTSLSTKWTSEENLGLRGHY

HEK293 [10] = experiment: cells; format: functional, cell-based; details: Homo sapiens
[11] = target: Nucleotide-binding oligomerization domain-containing protein 2 (Homo sapiens, UniProt Q9HC29); experiment: inhibition of NOD2-driven NF-kB reporter – cell-based, luminescence, uHTS, HEK293 (AID 1566); format: functional
Sequence of Nucleotide-binding oligomerization domain-containing protein 2 (Q9HC29 whole entry, the tested form may be a part): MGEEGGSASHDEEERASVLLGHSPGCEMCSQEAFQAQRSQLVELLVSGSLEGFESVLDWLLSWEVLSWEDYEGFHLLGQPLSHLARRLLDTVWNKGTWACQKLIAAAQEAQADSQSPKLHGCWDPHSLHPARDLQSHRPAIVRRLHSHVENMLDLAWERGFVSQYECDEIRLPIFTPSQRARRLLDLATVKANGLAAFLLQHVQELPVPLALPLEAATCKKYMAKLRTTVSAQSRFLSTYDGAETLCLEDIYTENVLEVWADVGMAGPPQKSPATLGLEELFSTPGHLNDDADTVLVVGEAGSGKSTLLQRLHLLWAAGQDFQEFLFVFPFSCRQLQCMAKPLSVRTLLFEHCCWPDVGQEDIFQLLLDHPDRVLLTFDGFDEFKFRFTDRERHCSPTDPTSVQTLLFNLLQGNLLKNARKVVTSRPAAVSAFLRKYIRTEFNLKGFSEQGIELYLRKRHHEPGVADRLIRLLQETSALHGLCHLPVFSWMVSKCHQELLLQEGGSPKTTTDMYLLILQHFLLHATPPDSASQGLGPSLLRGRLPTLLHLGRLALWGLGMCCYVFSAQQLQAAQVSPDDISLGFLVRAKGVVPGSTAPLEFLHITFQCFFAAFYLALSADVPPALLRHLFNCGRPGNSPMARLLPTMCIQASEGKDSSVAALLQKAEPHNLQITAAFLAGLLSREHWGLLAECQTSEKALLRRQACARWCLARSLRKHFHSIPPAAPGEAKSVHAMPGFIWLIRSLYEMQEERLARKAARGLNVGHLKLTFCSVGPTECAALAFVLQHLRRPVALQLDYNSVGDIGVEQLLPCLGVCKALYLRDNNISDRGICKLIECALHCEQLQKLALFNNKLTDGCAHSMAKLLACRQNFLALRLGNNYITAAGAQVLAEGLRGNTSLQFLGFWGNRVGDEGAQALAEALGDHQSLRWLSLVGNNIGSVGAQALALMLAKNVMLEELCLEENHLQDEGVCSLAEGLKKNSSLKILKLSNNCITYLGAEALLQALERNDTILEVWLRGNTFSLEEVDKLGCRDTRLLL

[12] = reduction of Shn3 3'UTR-driven luciferase in osteoblasts – cell-based, Clone20 osteoblasts, firefly luciferase, cherry-picked, dose response (AID 624132); format: functional;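 further: firefly luciferase luminescence from reporter carrying the Shn3 3'UTR in osteoblasts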
HEK293 [13] = experiment: inhibition of NOD1-driven NF-kB reporter – cell-based, luminescence, uHTS, primary screen (AID 1578); format: functional; details: Homo sapiens
HEK293 [14] = experiment: cells; format: functional, cell-based; details: Homo sapiens; remark: listed apart in the source
[15] = non-specific 3'UTR reporter inhibition in Clone20-Shn3RL – cell-based, Renilla luciferase, cherry-picked, counter-screen for Shn3 inhibitor project, dose response (AID 624133); format: functional
[16] = target: Nucleotide-binding oligomerization domain-containing protein 1 (Homo sapiens, UniProt Q9Y239); experiment: blockers of NOD1 pathway activity – revised, SAR follow-up (AID 2333); format: functional
Sequence of Nucleotide-binding oligomerization domain-containing protein 1 (Q9Y239 whole entry, the tested form may be a part): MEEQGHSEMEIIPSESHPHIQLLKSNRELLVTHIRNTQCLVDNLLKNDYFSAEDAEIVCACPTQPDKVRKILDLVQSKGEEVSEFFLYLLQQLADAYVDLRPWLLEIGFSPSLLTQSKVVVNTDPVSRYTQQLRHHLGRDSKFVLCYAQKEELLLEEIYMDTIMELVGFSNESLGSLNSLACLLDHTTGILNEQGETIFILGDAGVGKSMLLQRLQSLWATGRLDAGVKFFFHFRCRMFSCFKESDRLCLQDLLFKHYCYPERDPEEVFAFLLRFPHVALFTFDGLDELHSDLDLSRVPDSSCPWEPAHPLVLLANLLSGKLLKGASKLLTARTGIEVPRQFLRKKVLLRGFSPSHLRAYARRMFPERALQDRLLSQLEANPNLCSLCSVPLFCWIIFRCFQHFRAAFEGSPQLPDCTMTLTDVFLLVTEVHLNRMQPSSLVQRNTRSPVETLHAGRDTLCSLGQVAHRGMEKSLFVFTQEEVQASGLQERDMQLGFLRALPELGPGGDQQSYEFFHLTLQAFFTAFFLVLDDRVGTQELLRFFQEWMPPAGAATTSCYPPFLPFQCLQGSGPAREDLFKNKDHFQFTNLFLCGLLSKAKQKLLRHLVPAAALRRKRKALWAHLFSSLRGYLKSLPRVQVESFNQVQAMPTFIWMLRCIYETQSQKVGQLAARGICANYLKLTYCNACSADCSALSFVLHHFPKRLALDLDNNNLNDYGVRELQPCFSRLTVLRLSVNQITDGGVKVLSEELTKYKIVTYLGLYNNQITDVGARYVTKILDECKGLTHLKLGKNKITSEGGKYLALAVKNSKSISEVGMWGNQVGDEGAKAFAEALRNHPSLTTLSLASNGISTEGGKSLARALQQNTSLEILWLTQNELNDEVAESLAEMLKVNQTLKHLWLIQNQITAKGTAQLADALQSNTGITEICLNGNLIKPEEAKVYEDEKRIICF

[17] = loss of viability in HepG2 cells – cell-based, CellTiter-Glo, cherry-picked, cytotoxicity control for Shn3 inhibitor project, dose response (AID 624134); format: functional
HEK293 [18] = experiment: NOD2 signaling inhibitors in MDP-stimulated cells, cell-based, uHTS, luminescence (AID 2001); format: functional; details: Homo sapiens
HEK293 [19] = experiment: cells; details: Homo sapiens
HEK293 [20] = experiment: cells; format: functional, cell-based; details: Homo sapiens; remark: listed apart in the source
Paired box protein Pax-8 = Paired box protein Pax-8 (Homo sapiens, UniProt Q06710); experiment: PAX8 transcriptional activity inhibition in RMG-I – RMG-I cells, luciferase, cherry-pick, dose response (AID 687027); format: functional, cell-based;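 further: luciferase reporter driven by Pax8 target thyroperoxidase promoter measured by SteadyGlo luminescence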
Sequence of Paired box protein Pax-8 (Q06710 whole entry): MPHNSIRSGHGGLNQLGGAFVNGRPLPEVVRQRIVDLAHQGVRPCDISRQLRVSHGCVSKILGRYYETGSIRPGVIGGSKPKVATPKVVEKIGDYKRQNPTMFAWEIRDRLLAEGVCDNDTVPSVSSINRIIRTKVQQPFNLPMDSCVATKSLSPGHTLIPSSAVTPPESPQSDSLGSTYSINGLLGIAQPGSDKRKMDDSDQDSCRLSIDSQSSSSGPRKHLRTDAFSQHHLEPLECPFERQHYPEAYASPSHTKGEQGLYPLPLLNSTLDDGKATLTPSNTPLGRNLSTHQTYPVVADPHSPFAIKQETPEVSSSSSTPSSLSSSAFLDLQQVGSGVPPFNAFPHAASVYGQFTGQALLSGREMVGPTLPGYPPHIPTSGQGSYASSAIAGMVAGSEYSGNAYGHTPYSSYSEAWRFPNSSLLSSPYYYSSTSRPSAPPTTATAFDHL

Tumor necrosis factor = Tumor necrosis factor (Homo sapiens, UniProt P01375); experiment: analog potency on TNFa NF-kB signaling – cell-based, revised, SAR follow-up (AID 2337); format: functional
Sequence of Tumor necrosis factor (P01375 whole entry): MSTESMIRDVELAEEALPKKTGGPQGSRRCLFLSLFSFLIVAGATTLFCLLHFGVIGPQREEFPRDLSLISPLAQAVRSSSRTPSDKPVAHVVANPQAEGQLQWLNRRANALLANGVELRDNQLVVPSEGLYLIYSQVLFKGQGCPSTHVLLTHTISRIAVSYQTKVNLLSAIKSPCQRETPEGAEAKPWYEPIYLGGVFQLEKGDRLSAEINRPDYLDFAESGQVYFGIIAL

FC(F)(F)c1nnc(/N=c2\ssnc2Cl)s1
IC50 [1]: 20.8 µM (active) | IC50 (Phosphomannomutase 2): > 100 µM (inactive)

COc1ccc(Br)cc1/C(C)=N/NC1=NCCN1
IC50 [2]: 3.47 µM (active) | IC50 [3]: 4.74 µM (active) | IC50 [4]: > 80 µM (inactive)

Cc1ccc(N2C(=O)/C(=C/c3ccc(CN(CCC#N)S(C)(=O)=O)o3)C(=O)NC2=S)cc1
EC50 [5]: 40.4 µM (active) | EC50 [6]: 80.5 µM (active) | EC50 [7]: > 300 µM (not active) | EC50 [8]: 36.2 µM (active) | EC50 [9]: 37.8 µM (active)

Cc1cc(C)c(S(=O)(=O)Nc2ccc(O)c(Sc3nnc[nH]3)c2)cc1C
EC50 [5]: 42.4 µM (active) | EC50 [6]: 24.7 µM (active) | EC50 [8]: 22.5 µM (active)

Cc1ccc(S(=O)(=O)NCc2ccc(C(=O)N3CCN(c4ccc([N+](=O)[O-])cc4)CC3)cc2)cc1
IC50 (HEK293 [10]): > 20 µM (inactive) | EC50 [11]: 6.65 µM (active) | AC50 [12]: 3.79 µM (active) | EC50 (HEK293 [13]): 4.26 µM (active) | IC50 (HEK293 [14]): 16.2 µM (active) | AC50 [15]: 11.7 µM (active) | IC50 [16]: 9.8 µM (active) | AC50 [17]: 39.8 µM (active) | IC50 (HEK293 [18]): 7.59 µM (active) | IC50 (HEK293 [19]): > 20 µM (inactive) | IC50 (HEK293 [20]): 4.67 µM (active) | AC50 (Paired box protein Pax-8): 6.91 µM (active) | IC50 (Tumor necrosis factor): 11.4 µM (active)
